Assay [1] deals with MV4-11. In words: Antiproliferative activity against human MV4-11 cells assessed as cell viability incubated for 72 hrs by CCK-8 assay. Type of assay: functional, cell-based. The note with it: MV4-11, 72 h. For orientation: Formazan colour is commonly taken as a measure of viable cells.
The subject of assay [2] is MV4-11. In words: HEMTAC activity against HSP90/WEE1 in human MV4-11 cells assessed as induction of WEE1 degradation at 10 uM incubated for 12 hrs by Western blotting analysis. Type of assay: cell-based. On the technique in general: In western blotting, separated proteins are transferred to a membrane and probed.
For assay [3], the system named is Primary acute myeloid leukemic cell. In words: Antitumor activity against patient derived human Primary acute myeloid leukemic cell xenografted in female NOD/SCID mouse assessed as decrease in huCD45+ cells in bone marrow at 3 mg/kg administered via tail vein in presence of STA9090 and measured after 4 weeks by flow cytometric analysis. Type of assay: functional, organism-based. In general terms: In xenograft studies the graft and the host belong to different species.

The test system is the same in assay [4]. Kind of assay: Antitumor activity against patient derived human Primary acute myeloid leukemic cell xenografted in female NOD/SCID mouse assessed as decrease in huCD45+ cells in bone marrow at 5 mg/kg administered via tail vein and measured after 4 weeks in presence of STA9090 by flow cytometric analysis. Type of assay: functional, organism-based.
Assay [5] shares this test system. Kind of assay: Antitumor activity against patient derived human Primary acute myeloid leukemic cell xenografted in female NOD/SCID mouse assessed as decrease in huCD45+ cells in bone marrow at 5 mg/kg administered via tail vein and measured after 4 weeks by flow cytometric analysis. It counts as functional, organism-based.
Assay [6] relates to MV4-11. Kind of assay: Induction of cell cycle arrest in human MV4-11 cells assessed as accumulation of cells at G2/M phase at 100 nM incubated for 72 hrs by PI staining based flow cytometry. Type of assay: functional.
Assay [7] concerns MV4-11. In words: Upregulation of WEE1 mRNA expression in human MV4-11 cells incubated for 12 hrs by qRT-PCR analysis. It counts as functional, cell-based. The note with it: dose 1-10 µM.
Assay [8] deals with Heat shock protein HSP 90-alpha (Homo sapiens, UniProt P07900). Kind of assay: Inhibition of N-terminal HSP90alpha (unknown origin) ATPase activity incubated for 3 hrs by fluorescence polarization assay.

The source made the active and inactive calls. No cut-off for these calls is given here.

Take `C=CCn1c(=O)c2cnc(Nc3ccc(N4CCN(CCCCCNC(=O)c5noc(-c6cc(C(C)C)c(O)cc6O)c5-c5ccc(CN6CCOCC6)cc5)CC4)cc3)nc2n1-c1cccc(C(C)(C)O)n1`: in the assay with MV4-11 [1], the half-maximal inhibitory concentration (IC50) – broadly, the concentration needed to halve the response being measured – was determined as 24.2 nM. The outcome in the assay with MV4-11 [2] was Active.
Regarding `C=CCn1c(=O)c2cnc(Nc3ccc(N4CCN(C)CC4)cc3)nc2n1-c1cccc(C(C)(C)O)n1` [ADAVOSERTIB], the result (in assay [3]; in assay [4]; in assay [5]; with MV4-11 [2]; in the assay with MV4-11 [7]) was inactive. The IC50 in the assay with MV4-11 [1] worked out at 67.5 nM. The result in the assay with MV4-11 [6] was Active.
As for `CC(C)c1cc(C(=O)N2Cc3ccc(CN4CCN(C)CC4)cc3C2)c(O)cc1O` [ONALESPIB], the IC50 in assay [8] was 9.89 nM; in the assay on MV4-11 [1], 6.13 nM.
Take `C=CCn1c(=O)c2cnc(Nc3ccc(N4CCN(CCCCNC(=O)c5noc(-c6cc(C(C)C)c(O)cc6O)c5-c5ccc(CN6CCOCC6)cc5)CC4)cc3)nc2n1-c1cccc(C(C)(C)O)n1`: the IC50 in the assay with MV4-11 [1] came out at 45 nM. Also, the result in the assay on MV4-11 [2] was Active.
The matching figures for `C=CCn1c(=O)c2cnc(Nc3ccc(N4CCN(CCNC(=O)c5noc(-c6cc(C(C)C)c(O)cc6O)c5-c5ccc(CN6CCOCC6)cc5)CC4)cc3)nc2n1-c1cccc(C(C)(C)O)n1`: 99.2 nM and “Active”.
Consider `C=CCn1c(=O)c2cnc(Nc3ccc(N4CCN(CCCNC(=O)CCC(=O)Nc5ccc6c(c5)CCN6C(=O)c5cc(C(C)C)c(O)cc5O)CC4)cc3)nc2n1-c1cccc(C(C)(C)O)n1`, for which the IC50 in assay [8] was 18.7 nM; in the assay with MV4-11 [1], 47.6 nM. For the same compound, the outcome with MV4-11 [2] was Active.
For the compound `C=CCn1c(=O)c2cnc(Nc3ccc(N4CCN(CCCCCNC(=O)CN5CCN(Cc6ccc(-n7c(C(=O)NCC)nnc7-c7cc(C(C)C)c(O)cc7O)cc6)CC5)CC4)cc3)nc2n1-c1cccc(C(C)(C)O)n1`, the IC50 in the assay on MV4-11 [1] came to 9.66 nM. The result in the assay with MV4-11 [2] was Active.
Consider `C=CCn1c(=O)c2cnc(Nc3ccc(N4CCN(CCNC(=O)CN5CCN(Cc6ccc(-n7c(C(=O)NCC)nnc7-c7cc(C(C)C)c(O)cc7O)cc6)CC5)CC4)cc3)nc2n1-c1cccc(C(C)(C)O)n1`, for which the IC50 with MV4-11 [1] amounted to 13.1 nM. In addition, in the assay on MV4-11 [2], the result was Active.
